# According to patent publication US5866570A, “Treatment of vascular leakage and related syndrome such as septic shock by administration of metalloproteinase inhibitors” (Wisconsin Alumni Research Foundation, priority 1994, dated 1999):
# Tested on: MDA-MB-231 cells (human breast carcinoma)
# Test: in vitro invasion assay through matrigel (Transwell)
# Assay type: cell-based
# Settings: preliminary screen
# Description: Razoxane, various bis(hydroxylated)(2,6-dioxopiperazine)s, and various hydrophobic analogs were tested in an in vitro assay for inhibition of tumor cell penetration of a reconstituted basement membrane, matrigel, isolated from the Englegbreth-Holm-Swarm (EHS) tumor (disclosed in Kleinman et al., Biochem. (1982), 24, 6188-6193) first described by Albini et al, Cancer Res. (1987) 47, 3234-3245. An 8 μm pore filter coated with matrigel separates a lower compartment containing a chemoattractant and an upper compartment containing the cells and test compound. In particular, the following compounds were tested: razoxane, (1α, 2α, 4α, 5α)-4,4'-(4,5-dihydroxy-1,2-cyclohexanediyl)bis(2,6-piperazinedione); (1α, 2α, 4β, 5β)-4,4'-(4,5-dihydroxy-1,2-cyclohexanediyl)bis(2,6-piperazinedione);(1β, 2α,4α,5α)-4,4'-(4,5-dihydroxy-1,2-cyclohexanediyl)bis(2,6-piperazinedione); (1β, 2α, 4α,5β)-4,4'-(4,5-dihydroxy-1,2-cyclohexanediyl)bis(2,6piperazinedione); (1α, 2β, 4α,5β)-4,4'-(4,5-dihydroxy-1,2cyclohexanediyl)bis(2,6-piperazinedione); N,N'-cyclohexane-1,2-diylbis[N(2-ethoxy-2-oxoethyl)]glycine; N,N'-4-cyclohexene-1,2-diylbis[N-(2-ethoxy-2-oxoethyl)-glycine ester; (3aα, 5β, 6β, 7aα)-4,4'-(hexahydro-2,2-dimethyl1,3-benzodioxole-5,6-diyl)bis(2,6-piperazinedione); (3aα, 5α, 6α, 7aα)-4,4'-(hexahydro-2,2-dimethyl-1,3-benzodioxole-5,6-diyl)bis(2,6- piperazinedione); (3aα, 5α, 6β, 7aα)-4,4'-(hexahydro-2,2-dimethyl-1,3-benzodioxole-5,6-diyl)bis-2,6- piperazinedione; (3aα, 5β, 6α, 7aβ)-4,4'-(hexahydro-2,2dimethyl-1,3-benzodioxole-5,6-diyl)bis(2,6-piperazinedione); and (3aα, 5α, 6β, 7aβ)-4,4'-(hexahydro-2,2-dimethyl-1,3-benzodioxole-5,6-diyl) bis(2,6piperazinedione). Metastatic cells are able to degrade the basement membrane protein barrier and migrate through the pores of the filter whereas non-metastatic cells remain on the upper surface. The cells that pass to the under side of the filter are then counted under a microscope. […] Variations of this assay have been used to correlate this in vitro invasion with metastatic potential in vivo (Albini et al. (Id.); Hendrix et al. Cancer Letters (1987); 38, 127-247; Repesh L. A., Invasion Metastasis (1989) 9, 192-208 to select for more highly invasive cells (Teranova et al., Proc. Nat. Acad. Sci., (1986), 83, 465, 464; Tullberg et al., Invasion Metastasis, (1989), 9, 13-26; Sefer et al., Biotechniques, (1990), 9, 324-331), and to test compounds for inhibition (Nakajima et al., Cancer Res. (1989), 49, 1698-1756).
# This method has been improved to increase the number of assays which may be performed and analyzed per day. In particular, such improvement comprises the use of disposable Transwells (Costar) units described by Repesh et al., Invasion Metastasis, (1989), 9, 192-208, which consist of an 8 μm pore filter attached to an insert that fits in a 24 well culture plate. Matrigel concentration is titrated from zero to complete inhibition of motility of each invasive cell line used in the assay and for each batch of matrigel. The matrigel concentration which yields 50% or greater inhibition of motility in a 6 hr assay (usually from 15 to 50 μg of protein per filter) is chosen for determination of invasion. Motility of cells through the 8 μm filters is not by passive diffusion since the pore size is smaller than the cells, and is determined in the same chamber in the absence of matrigel. Motility is stimulated two-fold by the presence of fibroblast conditioned medium (3T3 cells) as a chemoattractant (data not shown). The cell lines used are HT-1080, a human fibrosarcoma, and MDA-MB-231, a human breast carcinoma (both available from the American Type Tissue Culture). These cell lines express both the 72 kD and the 92 kD collagenase type IV as determined by zymography (data not shown).
# For inhibition studies, 5×10^5 cells are plated in 200 μl of DMEM+0.1% BSA+the inhibitor (or appropriate solvent control) into the upper chamber of the Transwell. […]
smiles,measurement,setting,value
"CC1(C)O[C@H]2C[C@H](N3CC(=O)NC(=O)C3)[C@@H](N3CC(=O)NC(=O)C3)C[C@@H]2O1 (relative stereo) [Compound 80, (3aα, 5β, 6α, 7aβ)-4,4'-(hexahydro-2,2-dimethyl-1,3-benzodioxole-5,6-diyl)bis(2,6-piperazinedione)]",inhibition of invasion,,inhibit invasion
same,effect on cell motility,no matrigel,without inhibiting cell motility
